Assay type in all cases: nucleic-acid assay
Holding throughout (settings): Escherichia coli

Test [1] concerns Nucleic Acid. In words: DNA cleavage activity assessed as conversion of supercoiled pUC19 plasmid to nicked form at pH 7 after 24 hrs.
In test [2] the test system is Nucleic Acid. As to the kind of experiment: DNA cleavage activity assessed as conversion of supercoiled pUC19 plasmid to nicked form at pH 7 after 24 hrs in presence of sodium iodide.
In test [3] the test system is Nucleic Acid. In words: DNA cleavage activity assessed as conversion of supercoiled pUC19 plasmid to nicked form at pH 7 after 24 hrs in presence of tertiary-butyl alcohol.
For test [4], the system named is Nucleic Acid. As to the kind of experiment: DNA cleavage activity assessed as conversion of supercoiled pUC19 plasmid to nicked form at 0.286 mM at pH 7 after 24 hrs.
In test [5] the test system is Nucleic Acid. In words: DNA cleavage activity assessed as conversion of supercoiled pUC19 plasmid to nicked form at pH 7 after 12 hrs.
Test [6] concerns Nucleic Acid. As to the kind of experiment: DNA cleavage activity assessed as conversion of supercoiled pUC19 plasmid to nicked form at pH 7 after 24 hrs in presence of sodium azide.
The test system of test [7] is Nucleic Acid. In words: DNA cleavage activity assessed as conversion of supercoiled pUC19 plasmid to nicked form at pH 7 after 24 hrs in presence of hydrogen peroxide.
The subject of test [8] is Nucleic Acid. In words: DNA cleavage activity assessed as conversion of supercoiled pUC19 plasmid to nicked form at pH 7 after 1 hr.

Calls of active or inactive are those of the source. No cut-off for these calls is given here.

As to `CC(C)(S)CNCCN(CCN1CCCCC1)CC(C)(C)S`, the Activity with Nucleic Acid [1] came out at 74.8%.
As for `CC1CCN(CCN(CCNCC(C)(C)S)CC(C)(C)S)CC1`, the outcome in the test with Nucleic Acid [2], in the test with Nucleic Acid [3] and with Nucleic Acid [6] was inactive. In addition, the result in the test with Nucleic Acid [4] and with Nucleic Acid [7] was Active. The Activity in the test on Nucleic Acid [5] was 40.4%; in the test on Nucleic Acid [1], 100%; in the test with Nucleic Acid [8] it was 30.9%.
`CC1CC(C)CN(CCN(CCNCC(C)(C)S)CC(C)(C)S)C1` (stereo not given): in the test with Nucleic Acid [1], the Activity was determined as 48.2%.

The values above are taken from ChEMBL document CHEMBL1144641, “DNA cleavage promoted by 2,9-dimethyl-4,7-diazadecane-2,9-dithiol (DDD) derivatives” (Bioorg Med Chem Lett, 2007).
